In paper PMC9178793, “A Direct Assay for Measuring the Activity and Inhibition of Coactivator-Associated Arginine Methyltransferase 1” (Biochemistry, 2022):
Read-outs that look alike come from different tables or passages of the source. *1 amine or outer side, *2 acyl side, *3 side chain or, on linkers, in order; H or OH if unused. Where a SMILES comes first, the peptide text is derived from it. [ ]: non-standard residue; d: D form. X1 = N=C(NCCC[C@H](N[*:1])C(=O)[*:2])NCCC[C@H]1O[C@@H](n2cnc3c(N)ncnc32)[C@H](O)[C@@H]1O

Legend:
CARM1 [1] = molecular target: T1, CARM1 (Mus musculus, UniProt Q9WVG6); experiment: MRM LC-MS CARM1 enzyme inhibition assay (PABP1 456–466 peptide substrate, direct detection of aDMA product); format: biochemical; details: 286 nM CARM1, 12 μM PABP1 456–466, 10 μM AdoMet, 15 min preincubation, 2 h room temperature; duplicate data, ± SD
T1 construct: corresponding to the PRMT core (residues 130–497, mmCARM1_130–497) were amplified by PCR; GST (followed by TEV protease cleavage site) (N, cleaved yes); made in house; host or cells: Sf9 insect cells (baculovirus)
T1 sequence (Q9WVG6 130-497): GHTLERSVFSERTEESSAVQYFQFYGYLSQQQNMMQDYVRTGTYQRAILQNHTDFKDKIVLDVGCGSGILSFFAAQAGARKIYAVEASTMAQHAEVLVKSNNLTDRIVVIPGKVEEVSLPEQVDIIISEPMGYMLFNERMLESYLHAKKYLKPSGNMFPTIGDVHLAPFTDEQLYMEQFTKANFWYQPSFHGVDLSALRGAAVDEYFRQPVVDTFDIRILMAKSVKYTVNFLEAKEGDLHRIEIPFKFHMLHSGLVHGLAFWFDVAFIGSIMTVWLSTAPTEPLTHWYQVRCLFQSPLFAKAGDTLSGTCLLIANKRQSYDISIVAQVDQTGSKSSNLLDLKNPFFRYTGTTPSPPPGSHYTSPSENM
Excerpt: The positive clones were confirmed by sequencing (GATC). The sequences were subcloned in a pDEST20 vector using an LR reaction. The resulting recombinant protein is harboring an amino-terminal glutathione S-transferase (GST) tag followed by a Tobacco etch virus (TEV) protease cleavage site. […] Bacmid DNA purified from recombination-positive white colonies was transfected into Sf9 cells using the Lipofectin reagent (Invitrogen). Viruses were harvested 10 days after transfection. Sf9 cells were grown at 300 K in suspension culture in Grace medium (Gibco) using Bellco spinner flasks. sf9 cell culture (1 L, 0.8 × 10^6 cells·mL^-1) was infected with recombinant […]1 virus with an infection multiplicity of 1. The cells were harvested 48 h post-infection. Cell lysis was performed by sonication in 50 mL of buffer A [50 mM Tris-HCl pH 8.0, 250 mM NaCl, 5% glycerol, 5 mM TCEP, 0.01% NP40 and anti-proteases (Roche, Complete, EDTA-free)], and cellular debris was sedimented by centrifugation of the lysate at 40 000g for 30 min. The supernatant was incubated overnight at 277 K with 2 mL of glutathione Sepharose resin (GE Healthcare). After a short centrifugation, the supernatants were discarded, and the beads were poured in an Econo-column (Bio-Rad). After two washing steps with 10 mL of buffer A, 2 mL of buffer A supplemented with in-house produced TEV protease was applied to the columns and digestion was performed for 4 h at 303 K with gentle mixing. The digest was concentrated with an Amicon Ultra 10K (Milipore), loaded on a gel-filtration column (HiLoad 16/60 Superdex S200, GE Healthcare), and eluted at 1 mL·min^-1 with buffer B [20 mM Tris-HCl pH 8.0, 100 mM NaCl, 1 mM TCEP] using an ÄKTA Purifier device (GE Healthcare). Fractions containing […]1_130-497 were pooled and concentrated to 7.75 mg·mL^-1. […] The reaction was subsequently quenched by the addition of 30 μL of the reaction mixture to 10 μL of a 0.1% formic acid solution (pH 2). […] The supernatant (60 μL) was transferred to a new 96-well plate and analyzed. […] The products were eluted with a water-acetonitrile gradient moving from 20 to 92% acetonitrile (0.1% FA) over 6 min at a flow rate of 0.5 mL·min^-1. The injection volume was 10 μL. The ionization source was operated in positive mode using an interface voltage of 4.5 kV, nebulizing gas at 1.5 L/min, drying gas at 15 L/min, and a desolvation line (DL) temperature of 250 °C. The MRM parameter optimization was performed using both the analyte (PABP1^456-466-R^460-aDMA) and hexadeuterated internal standard (PABP1^456-466-R^460-d6-aDMA). The results of this optimization, which include precursor ion scanning, collision energy, and Q1 and Q3 scanning, are summarized in Table 1. […] For commercially available inhibitors that were not soluble in water, stock solutions were prepared in DMSO and diluted to a final DMSO concentration of <1% in the assay mixture. […] The mixture was incubated for 2 h at room temperature, and the reaction was subsequently quenched by the addition of 30 μL of the reaction mixture to 10 μL of a 0.1% formic acid solution (pH 2). […] The supernatant (60 μL) was transferred to a new 96-well plate and analyzed by LC-MS as described above. Negative controls (no enzyme) and positive controls (no inhibitor) were included in each plate. For quantification of the methylated product, the area ratio of analyte to internal standard was calculated and quantified using the linearity line obtained with the reference standards. […] To obtain kcat with units of s^-1, the maximal velocity (Vmax) is divided by 3600. [drawing 3] 3 The percentage inhibition was plotted as a function of inhibitor concentration and fit using a nonlinear regression analysis of the sigmoidal dose-response curve generated using the normalized data and a variable slope following eq 4. [drawing 4] 4 where Y is the percent inhibition, X is the logarithmic concentration of the inhibitors, and Hill Slope is the slope factor or Hill coefficient. […]

CARM1 [2] = molecular target: T2, CARM1 (Homo sapiens, UniProt Q86X55); details: chemiluminescent ELISA kit, H3-derived peptide, 1 μM AdoMet; cited from earlier work
T2 sequence (Q86X55 1-608): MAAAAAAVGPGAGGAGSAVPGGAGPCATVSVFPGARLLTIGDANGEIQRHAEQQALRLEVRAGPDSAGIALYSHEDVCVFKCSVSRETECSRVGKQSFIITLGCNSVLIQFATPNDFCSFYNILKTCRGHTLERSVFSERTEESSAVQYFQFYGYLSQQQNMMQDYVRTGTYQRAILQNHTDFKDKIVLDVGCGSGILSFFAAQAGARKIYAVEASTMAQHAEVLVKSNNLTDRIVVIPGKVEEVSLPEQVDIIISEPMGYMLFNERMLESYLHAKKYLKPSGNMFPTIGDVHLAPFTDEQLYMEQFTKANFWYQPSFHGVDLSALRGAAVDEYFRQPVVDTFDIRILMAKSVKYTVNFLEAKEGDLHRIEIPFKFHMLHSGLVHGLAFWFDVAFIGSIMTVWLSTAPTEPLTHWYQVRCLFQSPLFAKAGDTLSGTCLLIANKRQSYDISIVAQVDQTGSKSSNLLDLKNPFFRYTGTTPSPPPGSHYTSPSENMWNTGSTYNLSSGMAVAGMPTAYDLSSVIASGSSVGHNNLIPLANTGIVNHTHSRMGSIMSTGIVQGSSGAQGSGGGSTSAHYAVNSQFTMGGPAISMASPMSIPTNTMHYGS

CARM1 [3] = molecular target: T2, CARM1; experiment: commercially available chemiluminescent antibody-based ELISA kit (histone H3-derived peptide, aDMA at H3-R17); format: biochemical
Method: We next applied the assay in assessing the inhibition of CARM1 by a number of known inhibitors of varying potencies including AdoHcy (1), MS023 (2), MS049 (3), TP064 (4), and a series of recently reported peptidomimetic CARM1 inhibitors (5–9) (Figure 3).[20],[32]−[35] For the purpose of generating IC50 curves for these inhibitors, concentration ranges were set according to previously reported IC50 values. The inhibitors were first incubated with CARM1 for 15 min at room temperature before the enzyme reaction was initiated by the addition of the AdoMet/PABP1^456–466 substrate mixture. On the basis of the residual CARM1 activity measured, inhibition curves were generated and the IC50 values were determined (Table 3). To evaluate the suitability of the method for the determination of CARM1 inhibition, the IC50 values were compared with those obtained using a commercially available chemiluminescent ELISA kit. […] In addition, the peptide substrate and detection method employed in the ELISA kit are inherently different. The kit employs a histone H3-derived peptide that is covalently linked to the bottom of the well plate, and as such, no substrate concentration is given. Product formation in turn is detected using specific antibodies that recognize aDMA formation at arginine residue H3-R^17.

Row | IC50 (CARM1 [1]) | IC50 (CARM1 [3]) | Structure (SMILES) | IC50 (CARM1 [2])
1 | 403 ± 28 nM | – | CC(=O)N[C@@H](CCCCN)C(=O)N[C@@H](C)C(=O)N1CCC[C@H]1C(=O)N[C@@H](CCCNC(=N)NCCC[C@H]1O[C@@H](n2cnc3c(N)ncnc32)[C@H](O)[C@@H]1O)C(=O)N[C@@H](CCCCN)C(=O)N[C@@H](CCC(N)=O)C(=O)N[C@@H](CC(C)C)C(=O)N[C@@H](C)C(N)=O [Compound 6] (Ac-KAP[X1]KQLA-NH2) | –
2 | 212 ± 25 nM | – | CSCC[C@H](NC(=O)[C@@H](NC(=O)[C@H](CO)NC(=O)[C@H](Cc1ccccc1)NC(=O)[C@@H]1CCCN1C(=O)[C@@H]1CCCN1C(=O)[C@H](CCCNC(=N)NCCC[C@H]1O[C@@H](n2cnc3c(N)ncnc32)[C@H](O)[C@@H]1O)NC(=O)[C@@H]1CCCN1C(=O)[C@H](C)NC(=O)[C@H](C)NC(=O)[C@@H]1CCCN1C(C)=O)[C@@H](C)O)C(N)=O [Compound 9] (Ac-PAAP[X1]PPFSTM-NH2) | 90 ± 16 nM
3 | 1460 ± 21 nM | – | CC(=O)N1CCC[C@H]1C(=O)N[C@@H](CCCNC(=N)NCCC[C@H]1O[C@@H](n2cnc3c(N)ncnc32)[C@H](O)[C@@H]1O)C(=O)N[C@@H](CCCCN)C(=O)N[C@@H](CCC(N)=O)C(N)=O [Compound 8] | –
4 | 327 ± 34 nM | 101 ± 11 nM | CC(C)Oc1ccc(-c2c[nH]cc2CN(C)CCN)cc1 [Compound 2, reference compound] | –
5 | 162 ± 10 nM | – | CNCCN1CCC(c2cc(CN(C)C(=O)c3cccc(Oc4ccccc4)c3)ccn2)CC1 [Compound 4, reference compound] | –
6 | 770 ± 98 nM | – | CC(=O)N[C@@H](CO)C(=O)N[C@H](C(=O)NCC(=O)NCC(=O)N[C@@H](CCCCN)C(=O)N[C@@H](C)C(=O)N1CCC[C@H]1C(=O)N[C@@H](CCCNC(=N)NCCC[C@H]1O[C@@H](n2cnc3c(N)ncnc32)[C@H](O)[C@@H]1O)C(=O)N[C@@H](CCCCN)C(=O)N[C@@H](CCC(N)=O)C(=O)N[C@@H](CC(C)C)C(=O)N[C@@H](C)C(=O)N[C@H](C(=O)N[C@@H](CCCCN)C(=O)N[C@@H](C)C(=O)N[C@@H](C)C(N)=O)[C@@H](C)O)[C@@H](C)O [Compound 5] (Ac-STGGKAP[X1]KQLATKAA-NH2) | –
7 | 873 ± 339 nM | – | Nc1ncnc2c1ncn2[C@@H]1O[C@H](CSCC[C@H](N)C(=O)O)[C@@H](O)[C@H]1O [Compound 1, S-adenosyl-L-homocysteine, reference compound] | –
8 | 617 ± 57 nM | – | CC(=O)N[C@@H](C)C(=O)N1CCC[C@H]1C(=O)N[C@@H](CCCNC(=N)NCCC[C@H]1O[C@@H](n2cnc3c(N)ncnc32)[C@H](O)[C@@H]1O)C(=O)N[C@@H](CCCCN)C(=O)N[C@@H](CCC(N)=O)C(=O)N[C@@H](CC(C)C)C(N)=O [Compound 7] (Ac-AP[X1]KQL-NH2) | –
